This note sets out measurements from patent publication US5147878A, “Aminoalkoxyphenyl derivatives, process of preparation and compositions containing the same” (Sanofi, priority 1986, dated 1992).

The subject of test [1] is epinephrine-induced increase in blood-pressure (anti-α effect). Put plainly: Antiadrenergic properties: anti-α effect (reduction of epinephrine-induced hypertension). The format is in vivo. Details: key to anti-α effect: +: for a reduction < 50%; ++: for a reduction ≥ 50%; +++: for a reduction sub-total (almost complete reduction). The conditions noted are these: dog. Here is the method: (§1) The object of this test is to determine the capacity of the compounds of the invention for reducing the increase in epinephrine-induced increase in blood-pressure (anti-α effect) and the isoprenaline-induced acceleration in heart rate (anti-β effect), in dogs previously anaesthatized with pentobarbital and atropinized. For each dog, the dose of epinephrine (between 3 and 10 μg/kg) which induced a reproducible increase in the blood-pressure of approximately 133×10^2 Pa and the dose of isoprenaline (1 to 2 μg/kg) which induced a reproducible increase in the heart rate of approximately 70 beats/min. were first determined. The dose of epinephrine and of isoprenaline, determined in this manner, were injected alternately every ten minutes and, after two successive reference responses had been obtained, an amount of the test compound was administered intravenously. The percentage reduction in the hypertension induced by the test compound compared with the reference hypertension previously obtained (approximately 100 mm Hg) was recorded. In both cases, the results of the reduction in blood-pressure or in the heart rate have been expressed as follows: […]

The test system of test [2] is isoprenaline-induced acceleration in heart rate (anti-β effect). Put plainly: Antiadrenergic properties: anti-β effect (reduction of isoprenaline-induced tachycardia). Details: key to anti-β effect: +: for a reduction < 50%; ++: for a reduction ≥ 50%; +++: for a reduction sub-total (almost complete reduction). The conditions noted are these: dog; for inhibition in vivo at 10 mg/kg: 10 mg/kg i.v., known compounds; for inhibition in vivo at 0.5 mg/kg: 0.5 mg/kg i.v. The format is in vivo. Here is the method: as §1, with “the acceleration of the heart rate” for “the hypertension”, “reference tachycardia measured” for “reference hypertension”, “previously” for “previously obtained”, “(approximately 70 beats)” for “(approximately 100 mm Hg)”

In a further test the test system is isolated rat aorta. Put plainly: Calcium inhibitory properties: contractile response to potassium-induced depolarization on isolated rat aorta. More on the design: species or system isolated organ, male Wistar rats. The conditions noted are these: Rattus norvegicus, 1 h, read-out: % of the maximum contractional effect; for activity at 1 µM: 10^-6 M; for activity at 0.1 µM: 10^-7 M; for activity at 0.01 µM: 10^-8 M; for activity at 0.001 µM: 10^-9 M. An outline of the steps: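 Contraction is expressed as % of the pre-incubation maximum, measured after a 60 min compound exposure and a fresh K+ (100 mM KCl) depolarization. Tissue: aortic strips from male Wistar rats, 2 g tension, modified Krebs-bicarbonate, 37° C, CO2/O2 gassed.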

Setting [3] is: Canis lupus familiaris, iv, 10 mg/kg i.v., known compounds.
Setting [4] is: Canis lupus familiaris, iv, 0.5 mg/kg i.v.
The mark [5] stands for this setting: Canis lupus familiaris, iv, 5 mg/kg i.v.

Structures are written as SMILES. Counter-ions that a name gives are not always drawn. Some results are limits rather than exact numbers.

Usually inhibition in vivo stands for the change of the read-out against control, counted positive when it falls.

In the case of `COc1ccc(CCN(C)CC(O)COc2ccc(S(=O)(=O)c3c(C(C)C)cn4ccccc34)cc2)cc1OC` (racemic) [Ex. 50, hydrochloride], the anti-α effect entry in test [1] (0.1 mg/kg i.v.) is given as “+++”. Further, in test [2] (0.1 mg/kg i.v.), the anti-β effect entry is given as “+++”.
Regarding `CCCCc1oc2ccccc2c1S(=O)(=O)c1ccc(OCCN(CC)CC)cc1` [Compound A, reference compound], in the test on isolated rat aorta, the activity at 1 µM was 25%, the activity at 0.1 µM was 60.3% and the activity at 0.01 µM worked out at 84.3%. Further, the inhibition in vivo at 10 mg/kg in test [1] (setting [3]) was less than 50%. Further, at 10 mg/kg the inhibition in vivo in test [2] (Canis lupus familiaris, iv) was 0%.
With `CCc1oc2ccccc2c1S(=O)(=O)c1ccc(OCCN(CC)CC)cc1` [Compound B, reference compound], in the test with isolated rat aorta, the activity at 1 µM was determined as 52.2% and the activity at 0.1 µM was 84.9%. Also, the anti-α effect result in test [1] (10 mg/kg i.v., known compounds) is listed as “+++”. This compound displayed an inhibition in vivo at 10 mg/kg in test [2] (Canis lupus familiaris, iv) of less than 50%.
As to `CCCCc1cn2ccccc2c1C(=O)c1ccc(OCCCN(CCCC)CCCC)cc1` [Compound C, reference compound], in the test with isolated rat aorta, the activity at 1 µM came out at 25% and the activity at 0.1 µM came out at 74.4%. In addition, the inhibition in vivo at 10 mg/kg in test [1] (setting [3]) was less than 50%. Further, at 10 mg/kg the inhibition in vivo in test [2] (Canis lupus familiaris, iv) was 0%.
Take `CCCCN(CCCC)CCCOc1c(C)cc(C(=O)c2c(CC)cn3ccccc23)cc1C` [Compound D, reference compound]: the activity at 1 µM in the test with isolated rat aorta turned out to be 19.3%. Besides, the activity at 0.1 µM in the test with isolated rat aorta came out at 64.7%. The inhibition in vivo at 10 mg/kg in test [1] (setting [3]) is less than 50%; in test [2] (Canis lupus familiaris, iv), less than 50%.
In the case of `CCCN(CCC)CCCOc1ccc(C(=O)c2c(CC)cn3ccccc23)cc1` [Compound E, reference compound], in the test with isolated rat aorta, the activity at 1 µM is 37.9% and the activity at 0.1 µM turned out to be 89.1%. The compound further returned an inhibition in vivo at 10 mg/kg in test [1] (setting [3]) of less than 50%. In test [2] (Canis lupus familiaris, iv), this compound displayed an inhibition in vivo at 10 mg/kg not below 50%.
`CCCCN(CCCC)CCCOc1ccc(S(=O)(=O)c2c(C(C)C)cn3ccccc23)cc1` [Ex. 1, 2-isopropyl-1-{4-[3-(di-n-butylamino)propyloxy]benzenesulphonyl}indolizineoxalate]: in the test with isolated rat aorta, the activity at 1 µM was determined as 2%, the activity at 0.1 µM turned out to be 18.9% and the activity at 0.01 µM is 61%. This compound came in with an inhibition in vivo at 0.5 mg/kg in test [1] (setting [4]) not below 50%. The inhibition in vivo at 0.5 mg/kg in test [2] (Canis lupus familiaris, iv) is not below 50%.
Regarding `CCc1cn2ccccc2c1S(=O)(=O)c1ccc(OCCCN2CCCCC2)cc1.Cl` [Ex. 2, 2-ethyl-1-[4-(3-piperidinopropyloxy)benzenesulphonyl]indolizine hydrochloride], in the test with isolated rat aorta, the activity at 1 µM stood at 22.6% and the activity at 0.1 µM was 79.8%. Moreover, the anti-α effect result in test [1] (5 mg/kg i.v.) was “+++”. Besides, the inhibition in vivo at 5 mg/kg in test [2] (setting [5]) is not below 50%.
For `CCCCN(CCCC)CCCOc1ccc(S(=O)(=O)c2c(CC)cn3ccccc23)cc1` [Ex. 8, 2-Ethyl-1-{4-[3-(di-n-butylamino)propyloxy]benzenesulphonyl}indolizine hydrochloride], in the test on isolated rat aorta, the activity at 0.1 µM stood at 30.9%. For the same compound, the inhibition in vivo at 0.5 mg/kg was not below 50% in test [1] (setting [4]) and less than 50% in test [2] (Canis lupus familiaris, iv).
On to `CCCCc1cn2ccccc2c1S(=O)(=O)c1ccc(OCCCN(CCC)CCC)cc1.O=C(O)C(=O)O` [Ex. 12, 2-n-Butyl-1-{4-[3-(di-n-propylamino)propyloxy]benzenesulphonyl}indolizine oxalate], for which, in the test on isolated rat aorta, the activity at 1 µM worked out at 36.3%. The same compound had an inhibition in vivo at 5 mg/kg in test [1] (setting [5]) not below 50%. For the same compound, the anti-β effect result in test [2] (5 mg/kg i.v.) is on record as “+++”.
`CC(C)c1cn2ccccc2c1S(=O)(=O)c1ccc(OCCCN(C)C)cc1` [Ex. 14, 2-Isopropyl-1-{4-[3-(dimethylamino)propyloxy]benzenesulphonyl}indolizine]: the activity at 1 µM in the test with isolated rat aorta was determined as 32.6%. The anti-α effect entry in test [1] (2.5 mg/kg i.v.) is “+++”. The anti-β effect entry in test [2] (2.5 mg/kg i.v.) was “+++”.
As for `CCN(CC)CCCOc1ccc(S(=O)(=O)c2c(C(C)C)cn3ccccc23)cc1` [Ex. 15, 2-Isopropyl-1-{4-[3-(diethylamino)propyloxy]benzenesulphonyl}indolizine], in the test on isolated rat aorta, the activity at 1 µM is 18.4% and the activity at 0.1 µM stood at 71.2%. For the same compound, the anti-α effect entry in test [1] (2.5 mg/kg i.v.) is “+++”. Also, the anti-β effect entry in test [2] (2.5 mg/kg i.v.) is “+++”.
With `CCCN(CCC)CCCOc1ccc(S(=O)(=O)c2c(C(C)C)cn3ccccc23)cc1` [Ex. 17, 2-Isopropyl-1-{4-[3-(di-n-propylamino)propyloxy]benzenesulphonyl}indolizineoxalate], in the test with isolated rat aorta, the activity at 1 µM amounted to 7.4% and the activity at 0.1 µM worked out at 50.4%. In addition, the anti-α effect entry in test [1] (1.3 mg/kg i.v.) is “+++”. In addition, the inhibition in vivo at 1.3 mg/kg in test [2] (Canis lupus familiaris, iv, 1.3 mg/kg i.v.) was not below 50%.
For the compound `CCCCN(C)CCCOc1ccc(S(=O)(=O)c2c(CC)cn3ccccc23)cc1.O=C(O)C(=O)O` [Ex. 20, 2-Ethyl-1-{4-[3-(N-methyl-N-butylamino)propyloxy]benzenesulphonyl}indolizine oxalate], in the test on isolated rat aorta, the activity at 1 µM is 6.8% and the activity at 0.1 µM was determined as 60%. Further, in test [1] (5 mg/kg i.v.), the anti-α effect result is on record as “+++”. Moreover, in test [2] (5 mg/kg i.v.), the anti-β effect result is listed as “+++”.
With `CCCCNCCCOc1ccc(S(=O)(=O)c2c(CC)cn3ccccc23)cc1.O=C(O)C(=O)O` [Ex. 21, 2-Ethyl-1-{4-[3-(n-butylamino)propyloxy]benzenesulphonyl}indolizine oxalate], in the test with isolated rat aorta, the activity at 1 µM was 8.3% and the activity at 0.1 µM was determined as 74.7%. For the same compound, in test [1] (5 mg/kg i.v.), the anti-α effect entry was “+++”. Moreover, the anti-β effect entry in test [2] (5 mg/kg i.v.) is “+++”.
On to `CCCCN(CCCC)CCCCOc1ccc(S(=O)(=O)c2c(CC)cn3ccccc23)cc1` [Ex. 23, 2-Ethyl-1-{4-[4-(di-n-butylamino)butyloxy]benzenesulphonyl}indolizine hemioxalate], for which, in the test with isolated rat aorta, the activity at 0.1 µM came to 24.1% and the activity at 0.01 µM worked out at 77.8%. Besides, the anti-α effect entry in test [1] (1 mg/kg i.v.) is given as “+++”. The anti-β effect result in test [2] (1 mg/kg i.v.) was “+++”.
`CCCCCN(CCCCC)CCCOc1ccc(S(=O)(=O)c2c(CC)cn3ccccc23)cc1.Cl` [Ex. 26, 2-Ethyl-1-{4-[3-(di-n-pentylamino)propyloxy}benzenesulphonyl}indolizine hydrochloride]: in the test on isolated rat aorta, the activity at 0.1 µM was 42.9% and the activity at 0.01 µM was found to be 82.9%. In addition, the anti-α effect result in test [1] (0.5 mg/kg i.v.) is given as “+++”. Also, in test [2] (Canis lupus familiaris, iv), the inhibition in vivo at 0.5 mg/kg is not below 50%.
Regarding `CCc1cn2ccccc2c1S(=O)(=O)c1ccc(OCCCNCCc2ccc(OC)c(OC)c2)cc1` [Ex. 27, 2-Ethyl-1-{4-}3-(3,4-dimethoxy-β-phenethylamino)propyloxy]benzenesulphonyl}indolizine oxalate], in the test with isolated rat aorta, the activity at 0.1 µM came out at 7.7%, the activity at 0.01 µM was determined as 58.9% and the activity at 0.001 µM turned out to be 81.6%. In addition, the anti-α effect entry in test [1] (1 mg/kg i.v.) is reported as “+++”. The compound further registered an inhibition in vivo at 1 mg/kg in test [2] (Canis lupus familiaris, iv, 1 mg/kg i.v.) not below 50%.
As to `CCCCc1cn2ccccc2c1S(=O)(=O)c1ccc(OCCCNC(C)(C)C)cc1.O=C(O)C(=O)O` [Ex. 29, 2-n-Butyl-1-{4-[3-(tert-butylamino)propyloxy]benzenesulphonyl}indolizine oxalate], the activity at 1 µM with isolated rat aorta stood at 30.7%. Also, the anti-α effect entry in test [1] (5 mg/kg i.v.) is recorded as “+++”. In test [2] (setting [5]), this compound came in with an inhibition in vivo at 5 mg/kg not below 50%.
In the case of `COc1ccc(CCN(C)CCCCOc2ccc(S(=O)(=O)c3c(C(C)C)cn4ccccc34)cc2)cc1OC` [Ex. 42, 2-Isopropyl-1-[4-{4-[N-methyl-N-(3,4-dimethoxy-β-phenethyl)amino]butyloxy]benzenesulphonyl]indolizine], in the test with isolated rat aorta, the activity at 0.1 µM came out at 21.1%, the activity at 0.01 µM is 53.9% and the activity at 0.001 µM is 78.8%. Further, the anti-α effect entry in test [1] (0.1 mg/kg i.v.) is listed as “+++”. In test [2] (0.1 mg/kg i.v.), the anti-β effect result was “+++”.
Regarding `COc1cc(CCN(C)CCCOc2ccc(S(=O)(=O)c3c(C(C)C)c4ccccc4n3C)cc2)cc(OC)c1` [Ex. 146, 1-methyl-3-isopropyl-2-[4-{3-[N-methyl-N-(3,5-dimethoxy-β-phenethyl)amino]propyloxy}benzenesulphonyl]indole acid oxalate], the anti-α effect entry in test [1] (0.07 mg/kg i.v.) is “+++”. In test [2] (Canis lupus familiaris, iv, 0.07 mg/kg i.v.), this compound registered an inhibition in vivo at 0.07 mg/kg not below 50%.
